Assay results taken from ChEMBL document CHEMBL1136998, “Bis-neonicotinoid insecticides: Observed and predicted binding interactions with the nicotinic receptor” (Bioorg Med Chem Lett, 2009).

Assay: Displacement of [3H]IMI from house fly nAChR
Design: species or system Musca domestica

First: O=[N+]([O-])/N=C1/N(CCCCCCCCCCN2CCN(Cc3ccc(Cl)nc3)/C2=N\[N+](=O)[O-])CCN1Cc1ccc(Cl)nc1
Second: O=[N+]([O-])/N=C1\N(Cc2ccc(Cl)nc2)CCN1CN1CCN(Cc2ccc(Cl)nc2)/C1=N\[N+](=O)[O-]
The Ki of the first is 4.1-fold higher: 110 µM for the first, 27 µM for the second. The second binds more tightly here.

Assay: Displacement of [3H]IMI from Drosophila melanogaster brain nAChR

Going from `O=[N+]([O-])/N=C1/N(CCCCCCCCN2CCN(Cc3ccc(Cl)nc3)/C2=N\[N+](=O)[O-])CCN1Cc1ccc(Cl)nc1` to `O=[N+]([O-])/N=C1/N(CCCCCCCCCN2CCN(Cc3ccc(Cl)nc3)/C2=N\[N+](=O)[O-])CCN1Cc1ccc(Cl)nc1`, the Ki rises from 880 nM to 1380 nM (1.6-fold).

Compared with `O=[N+]([O-])/N=C1/N(Cc2ccc(CN3CCN(Cc4ccc(Cl)nc4)/C3=N\[N+](=O)[O-])cc2)CCN1Cc1ccc(Cl)nc1`, `O=[N+]([O-])/N=C1/N(CCCCCN2CCN(Cc3ccc(Cl)nc3)/C2=N\[N+](=O)[O-])CCN1Cc1ccc(Cl)nc1` is 4.5-fold higher in Ki: 1180 nM for the first, 5350 nM for the second. The first binds more tightly here.

First: O=[N+]([O-])/N=C1/N(CCCCCCCN2CCN(Cc3ccc(Cl)nc3)/C2=N\[N+](=O)[O-])CCN1Cc1ccc(Cl)nc1
Second: O=[N+]([O-])/N=C1/N(CCCCCCN2CCN(Cc3ccc(Cl)nc3)/C2=N\[N+](=O)[O-])CCN1Cc1ccc(Cl)nc1
The Ki of the first is 4.9-fold lower: 140 nM for the first, 680 nM for the second.

Compared with `O=[N+]([O-])/N=C1/N(CC/C=C\CCN2CCN(Cc3ccc(Cl)nc3)/C2=N\[N+](=O)[O-])CCN1Cc1ccc(Cl)nc1`, `O=[N+]([O-])/N=C1/N(CC/C=C/CCN2CCN(Cc3ccc(Cl)nc3)/C2=N\[N+](=O)[O-])CCN1Cc1ccc(Cl)nc1` is 3.2-fold higher in Ki: 780 nM for the first, 2490 nM for the second. The first binds more tightly here.

`O=[N+]([O-])/N=C1/N(C/C=C/C=C/CN2CCN(Cc3ccc(Cl)nc3)/C2=N\[N+](=O)[O-])CCN1Cc1ccc(Cl)nc1` gave a Ki of 970 nM.
